From patent publication US20230172996A1, “COMPOSITION FOR ALLEVIATING PULMONARY HYPERTENSION, METHOD FOR PREDICTING PROGNOSIS OF PULMONARY HYPERTENSION, METHOD FOR ASSISTING IN DETERMINING SEVERITY OF PULMONARY HYPERTENSION, AND METHOD FOR ASSISTING IN DIAGNOSING PULMONARY HYPERTENSION” (JSR Corporation, priority 2020, published 2023)

Test system: rat model of pulmonary hypertension induced by exposure to hypoxia
Experiment: Butyrate-containing water in rat model of pulmonary hypertension induced by exposure to hypoxia
Format: in vivo, SD rats
Settings: 100 mM butyrate in water ad libitum for three weeks, oral, compared to vehicle administration group
Procedure: Rats were anesthetized by inhalation of isoflurane (Pfizer) for induction of sedation and analgesia. Throughout the procedure, the body temperature of the rats was maintained at 37 to 38° C. using a rectal thermistor coupled with a thermostatically controlled heating pad. The trachea was cannulated, and the lungs were ventilated with a mouse ventilator (Harvard Apparatus) at a tidal volume of 10 μL/g at a frequency of 70/min. A polyethylene tube was inserted into the right external jugular vein and advanced into the right ventricle to measure right ventricular pressure (RVP). RVP signals were detected by a pressure transducer (MLT0670; ADInstruments), and the signals were relayed to pressure amplifiers (ML117; ADInstruments), and then were sampled continuously with a PowerLab system (ADInstruments, Colorado Springs, Colo.) and recorded on a computer using Chart software (ADInstruments). Heart rate was derived from the right ventricular systolic peaks.
After right ventricular systolic pressure measurement, the rats were killed by anesthesia overdose, and the heart was excised. […] The tissues were blotted, and the weight of the right ventricle (RV) and the weight of the left ventricle (LV)+septum were measured. The ratio of RV to LV+septum weight (the ratio of RV to LV weight) was calculated and used as an index of right ventricular hypertrophy. […]

CCCC(=O)[O-].[Na+] [butyrate, sodium butyrate]
right ventricular systolic pressure (FIG. 33(A)): significant inhibition
right ventricular hypertrophy (ratio of RV to LV weight) (FIG. 33(B)): significant inhibition
